These molecules were tested against Human RSK2 (Homo sapiens (Human), UniProt P51812) (assay: Human RSK2 assay (Kinase Glo Plus, residual ATP);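 note: recombinant human RSK2 phosphorylating a substrate peptide, 90 min at 28 °C, leftover ATP read by luminescence, RLU scaled between no-kinase background and uninhibited kinase controls, 4-parameter fit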).
Assay type: biochemical

Human RSK2, sequence (P51812 whole entry): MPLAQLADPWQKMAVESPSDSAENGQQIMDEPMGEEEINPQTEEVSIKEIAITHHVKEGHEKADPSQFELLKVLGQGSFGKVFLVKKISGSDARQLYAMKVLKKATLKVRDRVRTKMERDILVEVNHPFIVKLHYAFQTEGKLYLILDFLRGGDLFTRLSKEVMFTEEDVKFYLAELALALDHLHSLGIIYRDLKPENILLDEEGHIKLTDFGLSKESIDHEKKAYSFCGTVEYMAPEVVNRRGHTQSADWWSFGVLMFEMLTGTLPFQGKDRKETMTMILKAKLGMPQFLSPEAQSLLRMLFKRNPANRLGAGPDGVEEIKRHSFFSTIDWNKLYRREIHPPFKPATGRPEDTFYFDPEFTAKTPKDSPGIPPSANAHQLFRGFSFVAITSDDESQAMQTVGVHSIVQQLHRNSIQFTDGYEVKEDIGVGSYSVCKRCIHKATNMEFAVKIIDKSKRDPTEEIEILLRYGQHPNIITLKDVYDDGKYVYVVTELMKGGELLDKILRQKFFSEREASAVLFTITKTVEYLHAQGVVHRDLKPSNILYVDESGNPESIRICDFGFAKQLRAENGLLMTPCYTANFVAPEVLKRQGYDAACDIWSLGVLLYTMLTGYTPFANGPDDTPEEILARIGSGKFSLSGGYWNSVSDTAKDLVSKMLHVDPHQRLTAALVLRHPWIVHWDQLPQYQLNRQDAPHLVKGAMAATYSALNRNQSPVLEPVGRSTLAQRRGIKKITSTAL

| Structure (SMILES) | IC50 [µM] |
| --- | --- |
| Cc1cc(NC(=O)c2ccc3cc4n(c3c2)C(C)CNC4=O)no1 (stereo not drawn) [Example 174, 4-methyl-N-(5-methyl-1,2-oxazol-3-yl)-1-oxo-1,2,3,4-tetrahydropyrazino[1,2-a]indole-7-carboxamide] | 0.034 |
| CC1CNC(=O)c2cc3ccc(C(=O)Nc4cc(C(C)(C)C)on4)cc3n21 (stereo not drawn) [Example 176, N-(5-tert-butyl-1,2-oxazol-3-yl)-4-methyl-1-oxo-1,2,3,4-tetrahydropyrazino[1,2-a]indole-7-carboxamide] | 0.025 |
| CC1CNC(=O)c2cc3ccc(C(=O)Nc4cc5ccccc5[nH]4)cc3n21 (stereo not drawn) [Example 177, N-(1H-indol-2-yl)-4-methyl-1-oxo-1,2,3,4-tetrahydropyrazino[1,2-a]indole-7-carboxamide] | 0.008 |
| O=C(Nc1ccccc1)c1ccc2cc3n(c2c1)CCCNC3=O [Example 178, 1-oxo-N-phenyl-2,3,4,5-tetrahydro-1H-[1,4]diazepino[1,2-a]indole-8-carboxamide] | 0.29 |
| CCc1cc(NC(=O)c2ccc3cc4n(c3c2)CCCNC4=O)no1 [Example 181, N-(5-ethyl-1,2-oxazol-3-yl)-1-oxo-2,3,4,5-tetrahydro-1H-[1,4]diazepino[1,2-a]indole-8-carboxamide] | 0.0345 |
| Cc1cc(NC(=O)c2ccc3cc4n(c3c2)CC(C)CNC4=O)no1 (stereo not drawn) [Example 182, 4-methyl-N-(5-methyl-1,2-oxazol-3-yl)-1-oxo-2,3,4,5-tetrahydro-1H-[1,4]diazepino[1,2-a]indole-8-carboxamide] | 0.15 |
| O=C(Nc1cc(C2CC2)on1)c1ccc2cc3n(c2c1)CCCNC3=O [Example 183, N-(5-cyclopropyl-1,2-oxazol-3-yl)-1-oxo-2,3,4,5-tetrahydro-1H-[1,4]diazepino[1,2-a]indole-8-carboxamide] | 0.026 |
| O=C(Nc1cnc2ccccc2c1)c1ccc2cc3n(c2c1)CCCNC3=O [Example 190, 1-oxo-N-(quinolin-3-yl)-2,3,4,5-tetrahydro-1H-[1,4]diazepino[1,2-a]indole-8-carboxamide] | 0.034 |
| O=C(Nc1cnn(-c2ccccc2)c1)c1ccc2cc3n(c2c1)CCCNC3=O [Example 192, 1-oxo-N-(1-phenyl-1H-pyrazol-4-yl)-2,3,4,5-tetrahydro-1H-[1,4]diazepino[1,2-a]indole-8-carboxamide] | 0.018 |

The remaining lines, values ahead:

| IC50 [µM] | Structure (SMILES) |
| --- | --- |
| 0.15 | CC(C)(C)c1cc(NC(=O)c2ccc3cc4n(c3c2)CCCNC4=O)no1 [Example 175, N-(5-tert-butyl-1,2-oxazol-3-yl)-1-oxo-2,3,4,5-tetrahydro-1H-[1,4]diazepino[1,2-a]indole-8-carboxamide] |
| 0.155 | O=C(Nc1cc(-c2ccc(F)cc2)on1)c1ccc2cc3n(c2c1)CCCNC3=O [Example 184, N-[5-(4-fluorophenyl)-1,2-oxazol-3-yl]-1-oxo-2,3,4,5-tetrahydro-1H-[1,4]diazepino[1,2-a]indole-8-carboxamide] |
| 0.106 | N#Cc1ccc(NC(=O)c2ccc3cc4n(c3c2)CCCNC4=O)cc1 [Example 185, N-(4-cyanophenyl)-1-oxo-2,3,4,5-tetrahydro-1H-[1,4]diazepino[1,2-a]indole-8-carboxamide] |
| 0.16 | CC(=O)c1cccc(NC(=O)c2ccc3cc4n(c3c2)CCCNC4=O)c1 [Example 187, N-(3-acetylphenyl)-1-oxo-2,3,4,5-tetrahydro-1H-[1,4]diazepino[1,2-a]indole-8-carboxamide] |
| 1.3 | Cc1nn(C)c2ncc(NC(=O)c3ccc4cc5n(c4c3)CCCNC5=O)cc12 [Example 189, N-(1,3-dimethyl-1H-pyrazolo[3,4-b]pyridin-5-yl)-1-oxo-2,3,4,5-tetrahydro-1H-[1,4]diazepino[1,2-a]indole-8-carboxamide] |
| 0.048 | CC(C)(C)n1cc(NC(=O)c2ccc3cc4n(c3c2)CCCNC4=O)cn1 [Example 191, N-(1-tert-butyl-1H-pyrazol-4-yl)-1-oxo-2,3,4,5-tetrahydro-1H-[1,4]diazepino[1,2-a]indole-8-carboxamide] |

Source: patent US9150577B2, “Heterocyclic compounds containing an indole core” (Boehringer Ingelheim International GmbH, priority 2009, dated 2015)
